Numbered stars: 1 amine (or outer) side, 2 acyl side, 3 side chain; on linkers, the order of the positions; unused ones are H or OH. Bridge positions count the residues as written; N and C are the ends. Square brackets hold non-standard residues; d marks the D form. Side chains are listed from the residue outwards. Peptide text beside a SMILES is read from it. * marks the point of attachment. X2 = O=C(O)CN1CCN(CC(=O)O)CCN(CC(=O)N[C@@H](CCCCN*)C(=O)O)CCN(CC(=O)O)CC1; Ala(piperidin-4-yl) = O=C([C@H](CC1CCN([*:3])CC1)N[*:1])[*:2]; DOTA = O=C(O)CN1CCN(CC(=O)O)CCN(CC(=O)*)CCN(CC(=O)O)CC1; 1Nal = N[C@@H](Cc1cccc2ccccc12)C(=O)O; 2Nal = N[C@@H](Cc1ccc2ccccc2c1)C(=O)O; Phe(2-Me) = Cc1ccccc1C[C@H](N)C(=O)O; mXylylene = c1cc(C[*:1])cc(C[*:2])c1; Trx = NC[C@H]1CC[C@H](C(=O)O)CC1; tBuAla = CC(C)(C)C[C@H](N)C(=O)O; Chg = N[C@H](C(=O)O)C1CCCCC1; αMeP = C[C@@]1(C(=O)O)CCCN1; Dap = NC[C@H](N)C(=O)O; CH2 = C([*:1])[*:2]; Ahx = NCCCCCC(=O)O

This assay has as its target T1, human DLL3 (Homo sapiens, UniProt Q9NYJ7).
T1 construct: biotin (biotinylated)
T1 sequence (Q9NYJ7 27-618): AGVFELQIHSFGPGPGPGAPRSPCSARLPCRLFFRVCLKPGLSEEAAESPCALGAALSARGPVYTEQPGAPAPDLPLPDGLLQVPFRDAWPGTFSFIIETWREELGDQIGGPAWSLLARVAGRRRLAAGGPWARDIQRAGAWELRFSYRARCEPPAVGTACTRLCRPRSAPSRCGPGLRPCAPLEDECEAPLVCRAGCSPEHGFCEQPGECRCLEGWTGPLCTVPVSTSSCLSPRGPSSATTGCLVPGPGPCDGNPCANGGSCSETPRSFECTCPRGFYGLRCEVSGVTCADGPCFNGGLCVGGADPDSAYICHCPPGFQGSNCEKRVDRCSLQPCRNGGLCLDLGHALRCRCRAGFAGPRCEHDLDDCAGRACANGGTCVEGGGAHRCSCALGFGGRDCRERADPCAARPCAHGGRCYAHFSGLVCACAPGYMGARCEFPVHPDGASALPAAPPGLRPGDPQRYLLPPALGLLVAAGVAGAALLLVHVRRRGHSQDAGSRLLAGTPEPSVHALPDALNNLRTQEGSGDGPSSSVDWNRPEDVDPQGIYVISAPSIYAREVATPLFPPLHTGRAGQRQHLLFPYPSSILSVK
In words: Affinity determination by Surface Plasmon Resonance (SPR), Biacore, 1:1 binding model. Particulars: biotinylated human DLL3 on streptavidin chip, 25° C.; NB = nonbinding. On the procedure:
Example 3. Binding Affinity of Targeting Moieties Polypeptides to DLL3 Affinity Determination by Surface Plasmon Resonance (SPR)
SPR studies were performed on the compounds disclosed herein using the following protocol. […] Biotinylated target ligand human DLL3 was immobilized on a streptavidin sensor chip. A reference surface was set up for nonspecific binding and refractive index changes. For analysis of the kinetics of interactions, varying concentrations of samples were injected at a flow rate of 100 μL/min using running buffer containing 20 mM phosphate buffer with 2.7 mM KCl, 137 mM NaCl, 0.05% Surfactant P20 and 2% DMSO. Sensorgram curves were fitted with 1:1 binding model, and affinity and kinetic parameters were obtained using Biacore Insight evaluation 4.0. software.
A general note: SPR reads the build-up and loss of mass on a sensor chip optically.

With `CC(=O)N[C@H](C)C(=O)N[C@@H](CO)C(=O)N[C@@](C)(CC(=O)O)C(=O)N[C@H]1C/C=C/C[C@@H](C(=O)N2CCC[C@@]2(C)C(=O)N[C@@H](Cc2ccccc2)C(=O)N[C@@H](CC(=O)O)C(N)=O)NC(=O)[C@H](CC(N)=O)NC(=O)[C@H](Cc2ccc3ccccc3c2)NC(=O)[C@H](Cc2ccc(CNC(=O)CN3CCN(CC(=O)O)CCN(CC(=O)O)CCN(CC(=O)O)CC3)cc2)NC(=O)[C@H](CC(C)(C)C)NC(=O)[C@H](Cc2cccc3ccccc23)NC1=O` (single isomer, unassigned) [Cpd #193, Ac-(D-Ala)-S-(aMe-Asp)-AllyG(4)-(1Nal)-(t-Bu-Ala)-[PAF(DOTA)]-(2Nal)-N-AllyG(4)-(aMe-P)-F-D-CONH2], the dissociation constant (Kd) (as a rule, the concentration at which binding is half-saturated) came to 0.113 nM. In the case of `CSCC[C@H](NC(C)=O)C(=O)N[C@@H](CO)C(=O)N[C@@H](CC(=O)O)C(=O)N[C@H]1CSSC[C@@H](C(=O)N2CCC[C@H]2C(=O)N[C@@H](Cc2ccccc2)C(=O)N[C@@H](CC(=O)O)C(N)=O)NC(=O)[C@H](CC(N)=O)NC(=O)[C@H](Cc2c[nH]c3ccccc23)NC(=O)[C@H](CCC(N)=O)NC(=O)[C@H](CC(C)C)NC(=O)[C@H](Cc2c[nH]c3ccccc23)NC1=O` [Cpd #1, Ac-M-S-D-C(3)-W-L-Q-W-N-C(3)-P-F-D-CONH2] (Ac-MSDCWLQWNCPFD-NH2; disulfide 4-10) it was 11 nM; in that of `CSCC[C@H](NC(=O)CCCCCNC(=O)CN1CCN(CC(=O)O)CCN(CC(=O)O)CCN(CC(=O)O)CC1)C(=O)N[C@@H](CO)C(=O)N[C@@H](CC(=O)O)C(=O)N[C@H]1CSSC[C@@H](C(=O)N2CCC[C@H]2C(=O)N[C@@H](Cc2ccccc2)C(=O)N[C@@H](CC(=O)O)C(N)=O)NC(=O)[C@H](CC(N)=O)NC(=O)[C@H](Cc2c[nH]c3ccccc23)NC(=O)[C@H](CCC(N)=O)NC(=O)[C@H](CC(C)C)NC(=O)[C@H](Cc2c[nH]c3ccccc23)NC1=O` [Cpd #7, DOTA-Ahx-M-S-D-C(3)-W-L-Q-W-N-C(3)-P-F-D-CONH2] ({DOTA-Ahx}-MSDCWLQWNCPFD-NH2; disulfide 4-10), 14 nM; in that of `CC(=O)N[C@@H](CO)C(=O)N[C@@H](CC(=O)O)C(=O)N[C@H]1CSCSC[C@@H](C(=O)N2CCC[C@H]2C(=O)N[C@@H](Cc2ccccc2)C(=O)N[C@@H](CC(=O)O)C(=O)N[C@H](CCCCNC(=O)CN2CCN(CC(=O)O)CCN(CC(=O)O)CCN(CC(=O)O)CC2)C(N)=O)NC(=O)[C@H](CC(N)=O)NC(=O)[C@H](Cc2c[nH]c3ccccc23)NC(=O)[C@H](CCC(N)=O)NC(=O)[C@H](CC(C)C)NC(=O)[C@H](Cc2c[nH]c3ccccc23)NC1=O` [Cpd #66, Ac-S-D-C(1)-W-L-Q-W-N-C(1)-P-F-D-D-Lys(DOTA)-CONH2] (Ac-SDCWLQWNCPFD[dK](DOTA)-NH2; linker 3-9 via CH2), more than 300 nM. The result for `CC(=O)N[C@H](C(=O)N[C@@H](CO)C(=O)N[C@@H](CC(=O)O)C(=O)N[C@H]1CSCc2cccc(c2)CSC[C@@H](C(=O)N2CCC[C@@]2(C)C(=O)N[C@@H](Cc2ccccc2)C(=O)N[C@@H](CC(=O)O)C(=O)N[C@H](CCCCNC(=O)CN2CCN(CC(=O)O)CCN(CC(=O)O)CCN(CC(=O)O)CC2)C(N)=O)NC(=O)[C@H](CC(N)=O)NC(=O)[C@H](Cc2c[nH]c3ccccc23)NC(=O)[C@H](CCC(N)=O)NC(=O)[C@H](CC(C)C)NC(=O)[C@H](Cc2cccc3ccccc23)NC1=O)C1CCCCC1` [Cpd #144, Ac-(Chg)-S-D-C(mDBX)-(1Nal)-L-Q-W-N-C(2)-(aMe-P)-F-D-D-Lys(DOTA)-CONH2] (Ac-[Chg]SDC[1Nal]LQWNC[αMeP]FD[dK](DOTA)-NH2; linker 4-10 via mXylylene) reads more than 30 nM. `CNC(=O)[C@@H](CCCCNC(=O)CN1CCN(CC(=O)O)CCN(CC(=O)O)CCN(CC(=O)O)CC1)NC(=O)[C@H](CC(=O)O)NC(=O)[C@H](Cc1ccccc1)NC(=O)[C@]1(C)CCCN1C(=O)[C@@H]1CSSC[C@H](NC(=O)[C@H](CC(=O)O)NC(=O)[C@H](CO)NC(=O)[C@@H](C)NC(C)=O)C(=O)N[C@@H](Cc2cccc3ccccc23)C(=O)N[C@@H](CC(C)(C)C)C(=O)N[C@@H](CCC(N)=O)C(=O)N[C@@H](Cc2ccc3ccccc3c2)C(=O)N[C@@H](CC(N)=O)C(=O)N1` [Cpd #147, Ac-(D-Ala)-S-D-C(3)-(1Nal)-(t-Bu-Ala)-Q-(2Nal)-N-C(3)-(aMe-P)-F -D-[D-Lys(DOTA)]-CONHMe] (Ac-[dA]SDC[1Nal][tBuAla]Q[2Nal]NC[αMeP]FD[dK](DOTA)-NHMe; disulfide 4-10) showed a Kd of 0.13 nM. This lies in the sub-nanomolar range. The result for `CC(=O)N[C@H](C)C(=O)N[C@@H](CO)C(=O)N[C@@H](CC(=O)O)C(=O)N[C@H]1CSSC[C@@H](C(=O)N2CCC[C@@]2(C)C(=O)N[C@@H](Cc2ccccc2C)C(=O)N[C@@H](CC(=O)O)C(=O)N[C@H](CCCCNC(=O)CN2CCN(CC(=O)O)CCN(CC(=O)O)CCN(CC(=O)O)CC2)C(=O)O)NC(=O)[C@H](CC(N)=O)NC(=O)[C@H](Cc2ccc3ccccc3c2)NC(=O)[C@H](CCC(N)=O)NC(=O)[C@H](CC(C)(C)C)NC(=O)[C@H](Cc2cccc3ccccc23)NC1=O` [Cpd #150, Ac-(D-Ala)-S-D-C(3)-(1Nal)-(t-Bu-Ala)-Q-(2Nal)-N-C(3)-(aMe-P)-(2Me-F)-D-[D-Lys(DOTA)]-COOH] (Ac-[dA]SDC[1Nal][tBuAla]Q[2Nal]NC[αMeP][Phe(2-Me)]D[dK](DOTA)-OH; disulfide 4-10) reads 0.13 nM; that for `CC(=O)N[C@H](C)C(=O)N[C@H](CO)C(=O)N[C@@H](CC(=O)O)C(=O)N[C@H]1CSSC[C@@H](C(=O)N2CCC[C@@]2(C)C(=O)N[C@@H](Cc2ccccc2C)C(=O)N[C@@H](CC(=O)O)C(N)=O)NC(=O)[C@H](CC(N)=O)NC(=O)[C@H](Cc2ccc3ccccc3c2)NC(=O)[C@H](CCCCNC(=O)[C@H]2CC[C@H](CNC(=O)CN3CCN(CC(=O)O)CCN(CC(=O)O)CCN(CC(=O)O)CC3)CC2)NC(=O)[C@H](CC(C)(C)C)NC(=O)[C@H](Cc2cccc3ccccc23)NC1=O` [Cpd #151, Ac-(D-Ala)-S-D-C(3)-(1Nal)-(t-Bu-Ala)-[L-Lys(Chx-DOTA)]-(2Nal)-N-C(3)-(aMe-P)-(2Me-F)-D-CONH2] (Ac-[dA][dS]DC[1Nal][tBuAla]K([Trx-DOTA])[2Nal]NC[αMeP][Phe(2-Me)]D-NH2; disulfide 4-10), 0.28 nM. In the case of `CC(=O)N[C@H](C)C(=O)N[C@@H](CO)C(=O)N[C@@H](CC(=O)O)C(=O)N[C@H]1CSSC[C@@H](C(=O)N2CCC[C@@]2(C)C(=O)N[C@@H](Cc2ccccc2C)C(=O)N[C@@H](CC(=O)O)C(N)=O)NC(=O)[C@H](CC(N)=O)NC(=O)[C@H](Cc2ccc3ccccc3c2)NC(=O)[C@H](CCC(=O)NCCCC[C@H](NC(=O)CN2CCN(CC(=O)O)CCN(CC(=O)O)CCN(CC(=O)O)CC2)C(=O)O)NC(=O)[C@H](CC(C)(C)C)NC(=O)[C@H](Cc2cccc3ccccc23)NC1=O` [Cpd #153, Ac-(D-Ala)-S-D-C(3)-(1Nal)-(t-Bu-Ala)-[Glu(εLys(OH)-(DOTA))]-(2Nal)-N-C(3)-(aMe-P)-(2Me-F)-D-CONH2] (Ac-[dA]SDC[1Nal][tBuAla]E(X2)[2Nal]NC[αMeP][Phe(2-Me)]D-NH2; disulfide 4-10) it was 0.51 nM; in that of `CC(=O)N[C@H](C)C(=O)N[C@@H](CO)C(=O)N[C@@H](CC(=O)O)C(=O)N[C@H]1CSSC[C@@H](C(=O)N2CCC[C@@]2(C)C(=O)N[C@@H](Cc2ccccc2)C(=O)N[C@@H](CC(=O)O)C(N)=O)NC(=O)[C@H](CC(N)=O)NC(=O)[C@H](Cc2ccc3ccccc3c2)NC(=O)[C@H](CC2CCN(C(=O)CN3CCN(CC(=O)O)CCN(CC(=O)O)CCN(CC(=O)O)CC3)CC2)NC(=O)[C@H](CC(C)(C)C)NC(=O)[C@H](Cc2cccc3ccccc23)NC1=O` [Cpd #157, Ac-(D-Ala)-S-D-C(3)-(1Nal)-(t-Bu-Ala)-[3-(4-piperidinyl-DOTA)-Ala]-(2Nal)-N-C(3)-(aMe-P)-F -D-CONH2] (Ac-[dA]SDC[1Nal][tBuAla][Ala(piperidin-4-yl)](DOTA)[2Nal]NC[αMeP]FD-NH2; disulfide 4-10), 0.18 nM; in that of `CC(=O)N[C@H](C)C(=O)N[C@@H](CO)C(=O)N[C@@H](CC(=O)O)C(=O)N[C@H]1CCC(=O)NC[C@@H](C(=O)N2CCC[C@@]2(C)C(=O)N[C@@H](Cc2ccccc2C)C(=O)N[C@@H](CC(=O)O)C(=O)N[C@H](CCCCNC(=O)CN2CCN(CC(=O)O)CCN(CC(=O)O)CCN(CC(=O)O)CC2)C(N)=O)NC(=O)[C@H](CC(N)=O)NC(=O)[C@H](Cc2ccc3ccccc3c2)NC(=O)[C@H](CCC(N)=O)NC(=O)[C@H](CC(C)(C)C)NC(=O)[C@H](Cc2cccc3ccccc23)NC1=O` [Cpd #160, Ac-(D-Ala)-S-D-Glu(2)-(1Nal)-(t-Bu-Ala)-Q-(2Nal)-N-Dap(2)-(aMe-P)-(2Me-F)-D-D-Lys(DOTA)-CONH2] (Ac-[dA]SDE[1Nal][tBuAla]Q[2Nal]N[Dap][αMeP][Phe(2-Me)]D[dK](DOTA)-NH2; lactam 4-10), more than 300 nM.

Source of the values: US20250186541A1, “DLL3 TARGETING PEPTIDES AND CONSTRUCTS THEREOF” (MARIANA ONCOLOGY INC., priority 2023, published 2025).
